In publication PMC7352571, “New Anti-Cancer Strategy to Suppress Colorectal Cancer Growth Through Inhibition of ATG4B and Lysosome Function” (Cancers, 2020):

Assays:
[1] = test system: HCT116 cells; assay: CCK-8 cell viability assay, HCT116; type: cell-based, Human
Procedure: (§1) Cells were seeded and incubated overnight in 96-well plates at a density of 5 × 10^3 cells/well. […] A total of 10 µL CCK-8 were added to each well for additional 1 h and cell viability was measured by CCK-8 assay. Absorbance was measured at 450 nm. The IC50 values were calculated by GraphPad Prism 7 (GraphPad Software Inc., San Diego, CA, USA).

[2] = test system: MGC803 cells; assay: CCK-8 cell viability assay, MGC803; type: cell-based; settings: Homo sapiens, MGC-803; CCK-8 assay, 48 h
Procedure: as §1

[3] = test system: SGC7901 cells; assay: CCK-8 cell viability assay, SGC7901; type: cell-based; settings: Homo sapiens, SGC-7901; CCK-8 assay, 48 h
Procedure: as §1

[4] = test system: KYSE150 cells; assay: CCK-8 cell viability assay, KYSE150; type: cell-based; settings: Homo sapiens, KYSE-150; CCK-8 assay, 48 h
Procedure: as §1

[5] = test system: ATG16L1 KO Hela cells; assay: CCK-8 assay, ATG16L1 KO Hela cells; type: cell-based; settings: Homo sapiens
Procedure: as §1
Figure S4. The identification of ATG4B knockout HCT116 cells. (A) The genomic DNA of HCT116 cells in the control group transfected with GFP-sgRNA and the experimental group transfected with ATG4B-sgRNA was used as a template for PCR, and the PCR products were used for sequencing. (B) Protein levels of ATG 4B and LC3B in the control and ATG4BKO cells.
Figure S5. 163N induces cell death through targeting autophagy. (A) Hela cells were treated with […]
performed to assess cell proliferation. ( B) Hela cells or ATG16L1 KO Hela cells were treated with […]

[6] = test system: MRC-5 cells; assay: CCK-8 cell viability assay, normal cells MRC-5; type: cell-based; settings: at a higher concentration (40 µM), 48 h
Procedure: as §1
(§2) Figure S2. 163N could inhibit autophagy flux. (A) HeLa cells treated with different concentrations of
(§3) II/TUBA was calculated using ImageJ software.
(§4) was examined. The number of GFP-LC3B dots was quantified. Data are presented as mean ± SEM
(§5) was performed to assess cell viability. […]

[7] = test system: LC3-II in HeLa cells; assay: western blot for LC3 conversion, HeLa; type: cell-based; settings: 1, 5, 10, 20 µM for 6 h; 10 µM time course
Procedure: as §2, §3, §4, §5

[8] = test system: LC3B and LAMP1 in HeLa cells; assay: immunostaining, colocalization of LC3B and LAMP1; type: cell-based; settings: 10 µM, 6 h
Procedure: Figure 4 163N increases the accumulation of autolysosomes. (A) HEK293A cells expressing green fluorescent protein (GFP)-red fluorescent protein (RFP)-LC3 were treated with 163N (10 µM), rapamycin (Rap) (1 µM) or Baf (0.5 µM) for 6 h, then the colocalization of GFP and RFP puncta was detected. […] The colocalization of LC3B and LAMP1 was measured. […] Red arrows indicate normal autolysosome structures. (D) ATG4BKO HeLa cells expressing GFP-LC3[G120] or full length GFP-LC3 were treated with Rap (1 µM), 163N (10 µM), or CQ (40 µM) for 6 h, then the distribution of GFP-LC3 was examined. And the number of GFP-LC3 dots were quantified.
Immunostaining assay was performed as described previously. Cells were fixed in 4% paraformaldehyde for 15–20 min followed by permeabilization with 0.1% Triton X-100 for another 15 min. Then, PBS containing 5% bovine serum albumin was used for blocking. Primary antibodies (1:150) was used at 4° for one night and then secondary antibodies (1:500) were applied at room temperature for 1 h. EVOS FL Auto (Life Technologies) was used to get the fluorescence images. At least three optical fields with at least 100 cells were analyzed for quantification.

[9] = test system: lysosome acidity in HeLa cells; assay: LysoTracker Red (LTR) assay, HeLa; type: cell-based; settings: 6 h, 163N 5 or 10 µM, Rap 1 µM, E64D 25 µM plus pepstatin A 50 µM
Procedure: Figure 5 163N causes lysosome dysfunction. […] (C) HeLa cells were treated with or without 163N (10 µM) for 6 h, followed by immunostaining using cathepsin B and LAMP1 antibody. The colocalization of cathepsin B and LAMP1 was measured.
LTR assay: cells were incubated with LTR (25 nM) in HBSS medium at 37° for 30 min, and then fluorescence microscopy was used for detecting fluorescence intensity.

[10] = test system: HCT116 cells; assay: wound healing assay; type: cell-based, Human; settings: 10 µM, 48 h
Procedure: Cells were seeded in 12-well plates. After the cells grew to confluence, wounds were made by sterile pipette tips. The cells were photographed at the beginning of wound formation. […] The distance of cell migration was calculated from three independent experiments.

[11] = test system: HCT116 xenograft; assay: HCT116 mouse xenograft model; type: in vivo, mice
Procedure: Figure 7 163N inhibits tumor growth in a HCT116 mouse xenograft model. (A) HCT116 cells ([…]) were injected subcutaneously into the right flank of the immunodeficient nu/nu female mice. Seven days after tumor cell implantation, mice with palpable tumors were divided randomly into two groups and injected intraperitoneal on Monday, Wednesday, and Friday with either corn oil vehicle or 163N (50 mg/kg). Tumor volumes were calculated by the length and width measured by Vernier calipers every 2 d. (B) Body weight changes of mice during 28 d of exposure. (C) Tumor tissues were sectioned and subjected to H&E staining and immunohistochemistry for evaluating histological morphology, and expression of LC3B and SQSTM1. Scale bar: 50 µm. (D) TEM was used to detect the ultrastructure of the representative tumor tissues. Red arrows represent normal autolysosome structures. Data are presented as mean ± SEM. ** p < 0.01 vs VC.
The animal experimental procedures were approved by the Research Ethics Committee of Sun Yat-sen University (Guangzhou, China), ethic code: SYSU-IACUC-2018-000134. Four-week-old immunodeficient mice (nu/nu, female) were raised in a pathogen-free environment in the Experimental Animal Center of Sun Yat-sen University. Human colorectal cancer HCT116 cells (3 × 10^6) were injected subcutaneously into the right flank of the animals. Seven days after tumor cell implantation, mice with palpable tumors were divided randomly into two groups and injected intraperitoneal on Monday, Wednesday, and Friday of the following treatments: (1) vehicle control (corn oil); (2) 163N (50 mg/kg body weight) dissolved in corn oil. Tumors were measured using calipers and the tumor volume (mm^3) was calculated as follows: V = (L × W2)/2, L and W represents tumor length and width, respectively. At the end of the experiment (5 weeks after tumor implantation), the mice were given 200 µL of pentobarbital sodium (1%) by i.p. 30 min before sacrifice, tumors and organs were collected and weighed.

COc1ccc(Nc2cc(C)nc(Nc3ccc(-c4cc5ccccc5o4)cc3)n2)cc1 [Compound 163N]
cytotoxicity relative to XOS00163, XOS00201 and XOS00207, HCT116 ([1]; HCT116 cells): about five times higher cytotoxicity
IC50 ([1]; Homo sapiens, HCT-116, CCK-8 assay, 48 h): 5.76 µM
IC50 [2]: 9.33 µM
IC50 [3]: 21.2 µM
IC50 [4]: 13 µM
IC50 [5]: 12.4 µM
cell viability of normal cells MRC-5 [6]: reduce the cell viability
LC3-II level, HeLa [7]: dose- and time-dependent accumulation of LC3-II
LC3 puncta and co-localization with LAMP1 [8]: remarkable increase of LC3 puncta, which were well co-localized with LAMP1
LTR red fluorescence / acidic vesicles [9]: significant reduction in acidic vesicles
migration of wild type HCT116 cells [10]: significantly inhibited the migration
LC3B and SQSTM1 in tumor tissue by immunohistochemistry ([11]; 50 mg/kg intraperitoneal): increased levels of LC3B and SQSTM1
tumor growth ([11]; 50 mg/kg intraperitoneal Mon/Wed/Fri, nu/nu female mice, vs vehicle): less prominent
body weight ([11]; 50 mg/kg intraperitoneal, 28 d, vs vehicle): no significant changes in body weight
weight index and morphology of heart, liver, spleen, lung, kidney ([11]; 50 mg/kg intraperitoneal, vs vehicle): no significant changes in weight index
